Reference: EP0603240B1, “SAFENING HERBICIDAL PYRAZOLYLSULFONYLUREAS” (priority 1991, dated 1993)
Read-outs that look alike come from different tables or passages of the source.

Legend:
Format in all cases: in vivo
corn [1] = test: Example 22: retest of Example 21 at reduced greenhouse temperatures; conditions: Table 22
Protocol: (§1) Containers were filled and compacted with a fumigated silt loam top soil to a depth of about 1.3 cm from the top of the container. A first container was designated as an untreated control, a second container was designated as a herbicide control, and a third container was designated as a herbicide + antidote test container. Each of the containers was seeded with a crop species. A measured amount of herbicide dispersed or dissolved in acetone was applied to a measured quantity of soil. To this same quantity of soil treated with herbicide, there was added a measured amount of antidote dispersed or dissolved in acetone. The quantity of soil treated with the herbicide and antidote was thoroughly mixed to incorporate the herbicide and antidote in the soil uniformly. The seed bed in the third container of soil was covered with the soil treated with the herbicide and antidote and the container was leveled. For each test series, the seed beds of the first and second containers were likewise covered by soil layers. the cover layer of the first container was not treated with herbicide or antidote.
(§2) The containers were then placed on a bench in a greenhouse and sub-irrigated as required for the duration of the test. […] Plant response is measured in terms of percent injury. Antidote efficacy is indicated as the difference in plant injury by the herbicide(s) without the antidote and with the antidote.
(§3) This procedure is the same as Procedure I, but modified in the manner that after incorporation of the chemicals (herbicide and antidote) the containers with the covered seedbed were treated with an initial overhead irrigation equivalent to 0.6 cm rainfall, then subsequently sub-irrigated as required on greenhouse benches.
(§4) In this example, tests were conducted as in the preceding Examples 18-20, except here the co-herbicidal component was SUTAN® PLUS, a commercial product comprising as the active herbicidal ingredient the compound butylate (Herbicide No. 10) and an antidote […] (Antidote No. 1). Again, the antidotal compounds herein were Nos. 1, 2, 7, 13 and 15. Procedure II was used.
(§5) The experiments in this example were designed as a retest of those described in Example 21 in view of the uncharacteristically poor corn safety and weed control, believed to have resulted from unseasonably high temperatures in the greenhouse. Accordingly, temperatures were reduced for these tests.

[2] = test system: velvetleaf (Abutilon theophrasti); test: as above; conditions: Table 22
Protocol: as §1, §2, §3
(§6) In the series of greenhouse tests described below, for routine screening purposes the herbicide/antidote compositions were tested in crop/weed combinations involving corn as the crop and either or both of the weeds barnyardgrass (Echinochloa crusgalli), a monocotyledonous weed, and velvetleaf (Abutilon theophrasti), a dicotyledonous weed. In the tables below, these weeds are indicated by the symbols "BYG" and "VL", respectively.
as §4, §5

[3] = test system: barnyardgrass (Echinochloa crusgalli); test: as above; conditions: Table 22
Protocol: as §1, §2, §3, §6, §4, §5

corn [4] = test: Example 24, Procedure II: Herbicide No. 1 + co-herbicides Nos. 4, 6, 7, 12 with Antidote Nos. 15 and 17-21; conditions: Zea mays
In short: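 Greenhouse pots, herbicide No. 1 plus co-herbicides and antidote in acetone incorporated into silt loam soil covering the corn seed bed, with giant foxtail and velvetleaf; initial overhead irrigation equal to 0.6 cm rainfall, then sub-irrigation. Antidote at 2.24 kg/ha; percent injury read 13 days after application, duplicate average.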

[5] = test system: velvetleaf (Abutilon theophrasti); test: Example 23, Procedure II: Antidote Nos. 15 and 17-21 against Herbicide No. 1, 13 days after application; conditions: Abutilon theophrasti, 312 h
Protocol: as §1, §2, §3
(§7) In other greenhouse tests, using Procedure II described above, the safening efficacy of Antidote Nos. 15 and 17-21 was evaluated against Herbicide No. 1 in corn in the presence of Giant foxtail (Setaria fabergi) and Velvetleaf (Abutilon theophrasti) as representative annual monocotyledonous and dicotyledonous weeds, respectively.
(§8) Test results are shown in Tables 23A and 23B wherein the indicated plant inhibition represents the average of duplicate replications, with observations being made thirteen (13) days after application of the chemicals. Giant foxtail and Velvetleaf are represented by the symbols "GFT" and "VL", respectively. The data in Table 23A show the test results using the antidotes at 2.24 kg/ha, whereas in Table 23B, the antidotal rate was reduced to 0.56 kg/ha.

[6] = test system: Giant foxtail (Setaria fabergi); test: as above; conditions: Setaria, 312 h
Protocol: as §1, §2, §3, §7, §8

corn [7] = test: as above; conditions: Zea mays, 312 h, no antidote, 13 days after application; for inhibition at 140 g/ha: Herb. No. 1 0.14 Kg/Ha; for inhibition at 280 g/ha: Herb. No. 1 0.28 Kg/Ha; for inhibition at 560 g/ha: Herb. No. 1 0.56 Kg/Ha; for inhibition at 1120 g/ha: Herb. No. 1 1.12 Kg/Ha
Protocol: as §1, §2, §3, §7, §8

[8] = test system: velvetleaf (Abutilon theophrasti); test: Example 10, Procedure II: Herbicide No. 1 + propachlor (No. 5) with antidotes; conditions: no antidote
Protocol: as §1, §2, §3, §6
(§9) In this test, the safening effect of various antidotes on the herbicidal combination of Herbicide No. 1 and another α-chloroacetanilide co-herbicide, propachlor, (Herbicide No. 5) was investigated. Propachlor is the active ingredient in the commercial herbicide RAMROD®. Procedure II was also used in this test as in the preceding example.

[9] = test system: barnyardgrass (Echinochloa crusgalli); test: as above; conditions: no antidote
Protocol: as §1, §2, §3, §6, §9

[10] = Herbicide No.1 0.56 Kg/ha + SUTAN + 8.96 Kg/ha, no added antidote
[11] = Herbicide No.1 0.56 Kg/ha alone
[12] = Herbicide No.1 1.12 Kg/ha + SUTAN + 8.96 Kg/ha, no added antidote
[13] = Herbicide No.1 1.12 Kg/ha alone
[14] = read-out: % Inhibition Corn, Table 23A
[15] = read-out: % Inhibition Corn, Table 23B
[16] = Herbicide No.1 0.14 kg/ha alone
[17] = Herbicide No.1 0.56 kg/ha alone

COC(=O)c1c(Cl)nn(C)c1S(=O)(=O)NC(=O)Nc1nc(OC)cc(OC)n1 [Herbicide No. 1]
% Injury Corn (corn [1]; [10]): 55%
% Injury Corn (corn [1]; [11]): 60%
% Injury Corn (corn [1]; [12]): 60%
% Injury Corn (corn [1]; [13]): 65%
% Injury VL [2, 10]: 80%
% Injury VL [2, 11]: 65%
% Injury VL [2, 12]: 85%
% Injury VL [2, 13]: 80%
% Injury BYG [3, 10]: 93%
% Injury BYG [3, 11]: 55%
% Injury BYG [3, 12]: 93%
% Injury BYG [3, 13]: 70%
inhibition at 1120 g/ha (corn [4]; read-out: % Inhibition Corn, Herb. No. 1 0.07 Kg/ha + Co-Herb. No. 4 1.12 Kg/ha, no antidote): 10%
inhibition at 140 g/ha (corn [4]; read-out: % Inhibition Corn, Herb. No. 1 0.07 Kg/ha + Co-Herb. No. 6 0.14 Kg/ha, no antidote): 5%
inhibition at 280 g/ha (corn [4]; read-out: % Inhibition Corn, Herb. No. 1 0.07 Kg/ha + Co-Herb. No. 7 0.28 Kg/ha, no antidote): 5%
inhibition at 280 g/ha (corn [4]; read-out: % Inhibition Corn, Herb. No. 1 0.07 Kg/ha + Co-Herb. No. 12 0.28 Kg/ha, no antidote): 5%
inhibition at 1120 g/ha (corn [4]; read-out: % Inhibition Corn, Herb. No. 1 0.14 Kg/ha + Co-Herb. No. 4 1.12 Kg/ha, no antidote): 20%
inhibition at 140 g/ha (corn [4]; read-out: % Inhibition Corn, Herb. No. 1 0.14 Kg/ha + Co-Herb. No. 6 0.14 Kg/ha, no antidote): 20%
inhibition at 280 g/ha (corn [4]; read-out: % Inhibition Corn, Herb. No. 1 0.14 Kg/ha + Co-Herb. No. 7 0.28 Kg/ha, no antidote): 15%
inhibition at 280 g/ha (corn [4]; read-out: % Inhibition Corn, Herb. No. 1 0.14 Kg/ha + Co-Herb. No. 12 0.28 Kg/ha, no antidote): 10%
inhibition at 1120 g/ha (corn [4]; read-out: % Inhibition Corn, Herb. No. 1 0.28 Kg/ha + Co-Herb. No. 4 1.12 Kg/ha, no antidote): 25%
inhibition at 140 g/ha (corn [4]; read-out: % Inhibition Corn, Herb. No. 1 0.28 Kg/ha + Co-Herb. No. 6 0.14 Kg/ha, no antidote): 25%
inhibition at 280 g/ha (corn [4]; read-out: % Inhibition Corn, Herb. No. 1 0.28 Kg/ha + Co-Herb. No. 7 0.28 Kg/ha, no antidote): 30%
inhibition at 280 g/ha (corn [4]; read-out: % Inhibition Corn, Herb. No. 1 0.28 Kg/ha + Co-Herb. No. 12 0.28 Kg/ha, no antidote): 30%
inhibition at 1120 g/ha (corn [4]; read-out: % Inhibition Corn, Herb. No. 1 0.56 Kg/ha + Co-Herb. No. 4 1.12 Kg/ha, no antidote): 40%
inhibition at 140 g/ha (corn [4]; read-out: % Inhibition Corn, Herb. No. 1 0.56 Kg/ha + Co-Herb. No. 6 0.14 Kg/ha, no antidote): 40%
inhibition at 280 g/ha (corn [4]; read-out: % Inhibition Corn, Herb. No. 1 0.56 Kg/ha + Co-Herb. No. 7 0.28 Kg/ha, no antidote): 45%
inhibition at 280 g/ha (corn [4]; read-out: % Inhibition Corn, Herb. No. 1 0.56 Kg/ha + Co-Herb. No. 12 0.28 Kg/ha, no antidote): 45%
inhibition at 140 g/ha ([5]; read-out: % Inhibition VL, Table 23A, Herb. No. 1 0.14 Kg/Ha, no antidote): 90%
inhibition at 280 g/ha ([5]; read-out: % Inhibition VL, Table 23A, Herb. No. 1 0.28 Kg/Ha, no antidote): 90%
inhibition at 560 g/ha ([5]; read-out: % Inhibition VL, Table 23A, Herb. No. 1 0.56 Kg/Ha, no antidote): 95%
inhibition at 1120 g/ha ([5]; read-out: % Inhibition VL, Table 23A, Herb. No. 1 1.12 Kg/Ha, no antidote): 95%
inhibition at 140 g/ha ([5]; read-out: % Inhibition VL, Table 23B, Herb. No. 1 0.14 Kg/Ha, no antidote): 85%
inhibition at 280 g/ha ([5]; read-out: % Inhibition VL, Table 23B, Herb. No. 1 0.28 Kg/Ha, no antidote): 95%
inhibition at 560 g/ha ([5]; read-out: % Inhibition VL, Table 23B, Herb. No. 1 0.56 Kg/Ha, no antidote): 90%
inhibition at 1120 g/ha ([5]; read-out: % Inhibition VL, Table 23B, Herb. No. 1 1.12 Kg/Ha, no antidote): 90%
inhibition at 140 g/ha ([6]; read-out: % Inhibition GFT, Table 23A, Herb. No. 1 0.14 Kg/Ha, no antidote): 25%
inhibition at 280 g/ha ([6]; read-out: % Inhibition GFT, Table 23A, Herb. No. 1 0.28 Kg/Ha, no antidote): 35%
inhibition at 560 g/ha ([6]; read-out: % Inhibition GFT, Table 23A, Herb. No. 1 0.56 Kg/Ha, no antidote): 60%
inhibition at 1120 g/ha ([6]; read-out: % Inhibition GFT, Table 23A, Herb. No. 1 1.12 Kg/Ha, no antidote): 80%
inhibition at 140 g/ha ([6]; read-out: % Inhibition GFT, Table 23B, Herb. No. 1 0.14 Kg/Ha, no antidote): 30%
inhibition at 280 g/ha ([6]; read-out: % Inhibition GFT, Table 23B, Herb. No. 1 0.28 Kg/Ha, no antidote): 30%
inhibition at 560 g/ha ([6]; read-out: % Inhibition GFT, Table 23B, Herb. No. 1 0.56 Kg/Ha, no antidote): 60%
inhibition at 1120 g/ha ([6]; read-out: % Inhibition GFT, Table 23B, Herb. No. 1 1.12 Kg/Ha, no antidote): 70%
inhibition at 140 g/ha (corn [7]; [14]): 15%
inhibition at 280 g/ha (corn [7]; [14]): 25%
inhibition at 560 g/ha (corn [7]; [14]): 50%
inhibition at 1120 g/ha (corn [7]; [14]): 65%
inhibition at 140 g/ha (corn [7]; [15]): 10%
inhibition at 280 g/ha (corn [7]; [15]): 25%
inhibition at 560 g/ha (corn [7]; [15]): 40%
inhibition at 1120 g/ha (corn [7]; [15]): 60%
% Injury VL [8, 16]: 70%
% Injury VL [8, 17]: 75%
% Injury BYG [9, 16]: 75%
% Injury BYG [9, 17]: 80%
